Usually Ki stands for a measure of affinity in units of concentration, obtained from inhibition or displacement.

For one experiment, the target named is T1, MBR (Rattus norvegicus, UniProt P16257).
T1 construct: from tissue; host or cells: whole brain without cerebellum of male Wistar rats, crude membrane preparation
In words: Receptor binding experiment ([3H]PK11195 competition binding). To be noted: rat brain membrane preparation, [3H]PK11195 0.5 or 1 nmol/L; Ki calculated by Cheng and Prusoff formula from KD value and IC50. The protocol: The affinity of the compounds in the present invention to MBR was determined using rat brain membrane preparation. In addition, the measurement in the present invention was improved the accuracy of measurement and the sensitivity of measurement for evaluating the compounds in the present invention as follows. After male Wister rats were decapitated to extirpate the whole brain and cerebellums were removed. They were homogenized in ice-cold 50 mmol/L Tris-HCL buffer solution (pH 7.4), centrifuged and the obtained pellets were washed. The pellets resuspended and adjusted to about 1 mg/mL were used as rat brain membrane preparations for binding assay. The binding assay were experimented using [^3H]PK11195 as a MBR selective ligand. […]
To determine the amount of total binding in saturation binding experiment, membrane preparations, various concentrations of [^3H]PK11195, final concentration: 0.5 vol % dimethylsulfoxide (DMSO) and 50 mmol/L Tris-HCL buffer solution (pH 7.4) were mixed (total volume 200 μL) and were incubated for 1 hour at room temperature. […] The filter was dried and then the radioactivity on the filter was measured by liquid scintillation counter. The data obtained by the binding experiments were Scatchard analyzed using analysis software, KELL (Ver. 6, BIOSOFT) and the dissociation constant (KD value) was determined. […]

The subject of a further experiment is male Wistar rats. The experiment in a line: Evaluation of anti-stress effects (defecation under psychological stress). The conditions noted are these: 10 mg/kg orally 30 minutes before stressor load; counted 1 hour later; media treated group average 8.7 feces. Type of experiment: in vivo, rat. The protocol: Psychological stress was loaded to male Wistar rats (Brain research, 641, 21-28, 1994). Water was stored up to the depth of about 10 cm in a container where the platform was set at the center. A stressor began to load to rats 30 minutes after the vehicle or the compound in the present invention (the compound of Example 15(39)) were orally administered by dosage of 10 mg/kg. The number of defecation was counted 1 hour later (10 per each group). Rats without administration and load of stressor rarely defecated for 1 hour. In contrast, remarkable defecation was admitted in media treated group (average 8.7 feces) loaded by stressor. […] The results clarified that the compounds in the present invention had anti-stress effects.

For the compound `O=C1N(c2ccccc2)CCC12CCCN(S(=O)(=O)c1ccccc1)C2` (stereo not drawn) [Example 7, 2-phenyl-7-(phenylsulfonyl)-2,7-diazaspiro[4.5]decan-1-one], at MBR, the inhibition constant (Ki) was 0.23 µM. On to `COc1ccc(S(=O)(=O)N2CCCC3(CCN(c4ccc(Cl)cc4)C3=O)C2)cc1` (stereo not drawn) [Example 15(39), 2-(4-chlorophenyl)-7-[(4-methoxyphenyl)sulfonyl]-2,7-diazaspiro[4.5]decan-1-one], for which the inhibitory constant (Ki) at MBR was 0.04 µM. Besides, the “number of defecation (average)” value with male Wistar rats was determined as 5.8 feces.

The values are drawn from US20070275990A1, “Heterocyclic Spiro Compound” (ONO PHARMACEUTICAL CO., LTD., priority 2003, published 2007).
